Source: patent publication US20260083704A1, “LXR MODULATORS WITH BICYCLIC CORE MOIETY FOR TREATING DYSLIPIDEMIAS” (OrsoBio, Inc., priority 2022, published 2026)

What was measured:
DIO mice = experiment: Diet-induced obese (DIO) mouse model; format: in vivo
Source text: Data are shown as mean±SD. N=5-8 animals per group. *p≤0.05, **p≤0.01, ***p≤0.001, ****p≤0.0001 vs. vehicle, unless otherwise indicated; ^#p≤0.05 pioglitazone vs. vehicle Kruskal-Wallis (non-parametric One-Way ANOVA) test with Dunn's multiple comparisons test (FIG. 4A, FIG. 4B, FIG. 4D), repeated measures two-way ANOVA with Dunnett's multiple comparisons test (FIG. 4C), two-way ANOVA with Sidak's multiple comparisons test (FIG. 4E), Mann-Whitney test (FIG. 4F-G).
Data are shown as mean±SD. N=5-8 animals per group. *p≤0.05, **p≤0.01, ***p≤0.001, ****p≤0.0001 vs. vehicle, unless otherwise indicated; ^#p≤0.05 pioglitazone vs. vehicle repeated measures two-way ANOVA with Dunnett's multiple comparisons test (FIG. 5A, FIG. 5C, FIG. 5D), Kruskal-Wallis (non-parametric one-way ANOVA) test with Dunn's multiple comparisons test (FIG. 5B, FIG. 5E).
The efficacy of Compound 21/3 was evaluated in three dysmetabolic rodent models including DIO mice, HFD-fed ZDF rats, and HFD-fed SD rats (FIG. 4 and FIG. 5). Briefly, DIO mice were fed a HFD (60% kcal from fat) for 14 weeks and treated with Compound 21/3 (0.3 and 1 mg/kg once daily by oral gavage) for three weeks, while ZDF and SD rats were fed HFD for two weeks prior to treatment with Compound 21/3 (0.1 and 1 mg/kg once daily by oral gavage) for two or three weeks, respectively.

[1] = system: human primary Upcyte hepatocytes; experiment: Lipid accumulation in human primary Upcyte hepatocytes (Bodipy staining); format: cell-based; settings: Hepatocyte, 120 h, glucose 25 mM and palmitate, 5 days
Method: Inhibition of LXR activity in hepatocytes is hypothesized to reduce intracellular TG accumulation via inhibition of DNL. The effects of Compound 21/3 on lipid accumulation in human primary Upcyte® hepatocytes were evaluated. Briefly, human primary Upcyte hepatocytes were cultivated in media containing high concentrations of glucose (25 mM) and palmitate ([…]) for 5 days in the presence or absence of Compound 21/3, and intracellular lipids were measured by Bodipy™ staining. […] Data are shown as mean±SD. n=2 wells per treatment; N=8 experiments.

[2] = Phase 1 study, MAD cohorts: plasma pharmacokinetics; format: in vivo, human; settings: healthy subjects; for AUC / Cmax / Tmax / half-life: both sexes, human, plasma, oral
Method: (§1) A double-blind, placebo-controlled, single- and multiple-ascending dose FIH Phase 1 study to evaluate the safety, tolerability, PK, and PD of Compound 21/3 in healthy adult subjects was performed. A total of up to 150 subjects were enrolled, including 100 subjects in Parts A and B, and up to 50 subjects in adaptive cohorts in Part C. Within each cohort, 10 subjects were randomized, including 8 subjects randomized to Compound 21/3 and 2 subjects to PTM (placebo-to-match). In single-dose cohorts in Parts A and in any Part C cohort evaluating a higher total daily dose than previously evaluated, safety and tolerability data collected through Day 2 from two sentinel subjects, one randomized to Compound 21/3 and one to PTM, were evaluated prior to dosing of the remaining subjects in each cohort.
(§2) Intensive PK sampling over 72 h postdose on Day 1 (SAD and MAD) and Day 14 (MAD) was performed. Compound 21/3 plasma concentrations were determined using validated liquid chromatography-tandem mass spectrometry assay. PK parameters were estimated via noncompartmental methods using Pheonix® WinNonlin® 6.2.1 and 8.3.4 (Certara, LP, Princeton, NJ).
(§3) Part B evaluated the safety, tolerability, PK, and PD of multiple-ascending doses of oral Compound 21/3 or placebo under fed conditions. Part B will proceed in up to 5 dose-escalation cohorts and will be governed by a review of safety, tolerability, and any available and relevant PK and/or PD data, and study-specific stopping criteria.

[3] = Phase 1 study, SAD cohorts: plasma pharmacokinetics; format: in vivo, human; settings: for AUC(0-inf) / Cmax / Tmax / half-life: both sexes, human, oral, plasma
Method: as §1, §2
as §3, with “A” for “B”, “single-ascending” for “multiple-ascending”, “A proceeded” for “B will proceed”, “and” for “and will be”

[4] = system: LXR target genes in the liver; experiment: Liver LXR target gene expression 24 hours after a single oral dose in mice; format: in vivo; settings: 24 hours post-dose
Method: Data are shown as mean±SD. N=3-8 wells per treatment.
The efficacy of Compound 21/3 and Compound pre-6/3 were evaluated in diet-induced obese (DIO) mouse and rat models.

With `N#Cc1cccc(C#N)c1-c1c(-c2cccc(-c3ccc(C(=O)NCC(=O)O)cc3Cl)c2)n(S(=O)(=O)c2ccc(C(F)F)cc2)c2ccc(F)cc12` [Compound 21/3] the “expression of Hmgcr and Cyp7a1 in the liver and Abca1, Abcg5, Abcg8 in the intestine” value (DIO mice; DIO mice) was “dose-dependently reduced”, the “expression of cholesterol efflux transporters Abca1 and Abcg1 in the buffy coat” value (DIO mice; DIO mice) was “did not alter” and the “plasma TG levels” value (DIO mice; DIO mice) was “reduced”. The “liver expression of DNL genes (Srebp1c, Fasn, Acaca, Scd1)” value (DIO mice; DIO mice, 0.3 and 1 mg/kg once daily oral, three weeks) was “dose-dependently reduced”, the “maximal reduction of liver TG versus vehicle” value (DIO mice; DIO mice, p≤0.001) was 65% and the “reduction of plasma total cholesterol (TC) at end of treatment compared with vehicle” value (DIO mice; DIO mice, p≤0.05) was 49%. For the same molecule, the “intestinal Srebp1c expression” value (DIO mice; DIO mouse, ileum) was “dose-dependently reduced”, the “liver TC” value (DIO mice; dysmetabolic rodent models (FIG. 5B), particularly higher dose groups) was “statistically significant increase” and the “liver biochemistry tests, plasma ALT or AST, compared with vehicle” value (DIO mice; dysmetabolic rodent models (FIG. 5C-D)) was “not associated with substantial elevations”. It also gave an EC50 [1] of 0.289 ± 0.034 µM, an AUC ([2]; 2 mg, MAD Day 14, 2 mg, fed, mean) of 2.7 ng·h/mL and a Cmax ([2]; 2 mg, MAD Day 14, 2 mg, fed, mean, read-out: Cmax) of 0.95 ng/mL. The Tmax ([2]; 2 mg, MAD Day 14, 2 mg, fed, median) was 4 h, the half-life ([2]; 2 mg, MAD Day 14, 2 mg, fed, median, read-out: t1/2 (converted)) was 1.43 h and the AUC ([2]; 6 mg, MAD Day 14, 6 mg (fasted), mean) was 19 ng·h/mL. The Cmax ([2]; 6 mg, MAD Day 14, 6 mg (fasted), mean, read-out: Cmax) was 6.37 ng/mL, the Tmax ([2]; 6 mg, MAD Day 14, 6 mg (fasted), median) was 2 h and the half-life ([2]; 6 mg, MAD Day 14, 6 mg (fasted), median, read-out: t1/2 (converted)) was 1.46 h. It also gave an AUC ([2]; 6 mg, MAD Day 14, 6 mg, fed, mean) of 6.05 ng·h/mL, a Cmax ([2]; 6 mg, MAD Day 14, 6 mg, fed, mean, read-out: Cmax) of 2.16 ng/mL and a Tmax ([2]; 6 mg, MAD Day 14, 6 mg, fed, median) of 3.5 h. For the same molecule, the half-life ([2]; 6 mg, MAD Day 14, 6 mg, fed, median, read-out: t1/2 (converted)) was 1.51 h, the AUC ([2]; 12 mg, MAD Day 14, 12 mg, fed, mean) was 14.6 ng·h/mL and the Cmax ([2]; 12 mg, MAD Day 14, 12 mg, fed, mean, read-out: Cmax) was 4.85 ng/mL. The Tmax ([2]; 12 mg, MAD Day 14, 12 mg, fed, median) was 3.5 h, the half-life ([2]; 12 mg, MAD Day 14, 12 mg, fed, median, read-out: t1/2 (converted)) was 1.74 h and the half-life ([2]; MAD, read-out: steady-state t1/2) was 1.4 to 2.6 h. For the same molecule, the Tmax ([2]; Phase 1 summary (SAD and MAD)) was 2 to 4 h, the Cmax ([2]; Phase 1 summary (SAD and MAD), read-out: maximal plasma concentrations (Cmax)) was under 7 ng/mL and the “steady-state t1/2” value ([2]; MAD) was 1.5 to 2.5 h. The “AUC and Cmax lower on Day 14 vs Day 1” value ([2]; MAD, fed dosing) was 25-50%, the “dose proportionality of AUC and Cmax” value ([2]; MAD, fed dosing) was “increased less than dose proportionally” and the AUC(0-inf) ([3]; Day 1, 0.5 mg, mean) was 1.2 ng·h/mL. For the same molecule, the Cmax ([3]; Day 1, 0.5 mg, mean, read-out: Cmax) was 0.37 ng/mL, the Tmax ([3]; Day 1, 0.5 mg, median) was 3.5 h and the half-life ([3]; Day 1, 0.5 mg, median) was 2.1 h. The AUC(0-inf) ([3]; Day 1, 2 mg, mean) was 8.5 ng·h/mL, the Cmax ([3]; Day 1, 2 mg, mean, read-out: Cmax) was 0.54 ng/mL and the Tmax ([3]; Day 1, 2 mg, median) was 3.75 h. The half-life ([3]; Day 1, 2 mg, median) was 4.96 h, the AUC(0-inf) ([3]; Day 1, 6 mg, mean) was 10 ng·h/mL and the Cmax ([3]; Day 1, 6 mg, mean, read-out: Cmax) was 3.33 ng/mL. The Tmax ([3]; Day 1, 6 mg, median) was 4 h, the half-life ([3]; Day 1, 6 mg, median) was 1.37 h and the AUC(0-inf) ([3]; Day 1, 12 mg, mean) was 17.1 ng·h/mL. For the same molecule, the Cmax ([3]; Day 1, 12 mg, mean, read-out: Cmax) was 4.69 ng/mL, the Tmax ([3]; Day 1, 12 mg, median) was 3 h and the half-life ([3]; Day 1, 12 mg, median) was 2.02 h. The AUC(0-inf) ([3]; Day 1, 20 mg, mean) was 20.6 ng·h/mL, the Cmax ([3]; Day 1, 20 mg, mean, read-out: Cmax) was 6.79 ng/mL and the Tmax ([3]; Day 1, 20 mg, median) was 2.5 h. The half-life ([3]; Day 1, 20 mg, median) was 2.36 h, the half-life ([3]; healthy subjects) was 2 to 3 h and the Tmax ([3]; healthy subjects, postdose) was 3 to 4 h. For the same molecule, the Cmax ([3]; healthy subjects, read-out: maximal plasma concentrations (Cmax)) was under 7 ng/mL, the “dose proportionality of plasma exposure” value ([3]; healthy subjects) was “less than dose-proportional increases” and the “target engagement in the liver (expression of LXR target genes)” value [4] was “sustained target engagement”.
